Numbering of substitutions follows the chain as printed. “Also recorded” adds a separate entry of the source. Like-named read-outs stand apart in the source and are kept apart here.
B1: variant 10: humanized 3E10 variant, SEQ ID NOS: 14, 22, and 32 (protein)
chain 1: EVQLVESGGGLVQPGGSLRLSCAASGFTFSNYGMHWVRQAPGKGLEWVSYISSSSSTIYYADSVKGRFTISRDNAKNSLYLQMNSLRAEDTAVYYCARRGLLLDYWGQGTTVTVSS
chain 2: DIQMTQSPSSLSASVGDRVTITCRASKSVSTSSYSYMHWYQQKPGKAPKLLIKYASYLESGVPSRFSGSGSGTDFTLTISSLQPEDFATYYCQHSREFPWTFGQGTKVEIK
chain 3: DIQMTQSPSSLSASVGDRVTITCRASKSVSTSSYSYMHWYQQKPGKAPKLLIKYASYLESGVPSRFSGSGSGTDFTLTISSLQPEDFATYYCQHSREFPWTFGQGTKVEIKRADAAPGGGGSGGGGSGGGGSEVQLVESGGGLVQPGGSLRLSCAASGFTFSNYGMHWVRQAPGKGLEWVSYISSSSSTIYYADSVKGRFTISRDNAKNSLYLQMNSLRAEDTAVYYCARRGLLLDYWGQGTTVTVSSASTKGPSVFPLAPLESSGSDIQMTQSPSSLSASVGDRVTITCRASKSVSTSSYSYMHWYQQKPGKAPKLLIKYASYLESGVPSRFSGSGSGTDFTLTISSLQPEDFATYYCQHSREFPWTFGQGTKVEIKRADAAPGGGGSGGGGSGGGGSEVQLVESGGGLVQPGGSLRLSCAASGFTFSNYGMHWVRQAPGKGLEWVSYISSSSSTIYYADSVKGRFTISRDNAKNSLYLQMNSLRAEDTAVYYCARRGLLLDYWGQGTTVTVSS
B2: variant 13: humanized 3E10 variant, SEQ ID NOS: 17, 23, and 35, expressed in CHO cells (protein)
chain 1: B1 chain 1 with S54G
chain 2: B1 chain 2 with V15L, V19A, S28T, K46Q, A47P, F87A, Q104G
chain 3: DIQMTQSPSSLSASLGDRATITCRASKTVSTSSYSYMHWYQQKPGQPPKLLIKYASYLESGVPSRFSGSGSGTDFTLTISSLQPEDAATYYCQHSREFPWTFGGGTKVEIKRADAAPGGGGSGGGGSGGGGSEVQLVESGGGLVQPGGSLRLSCAASGFTFSNYGMHWVRQAPGKGLEWVSYISSGSSTIYYADSVKGRFTISRDNAKNSLYLQMNSLRAEDTAVYYCARRGLLLDYWGQGTTVTVSSASTKGPSVFPLAPLESSGSDIQMTQSPSSLSASLGDRATITCRASKTVSTSSYSYMHWYQQKPGQPPKLLIKYASYLESGVPSRFSGSGSGTDFTLTISSLQPEDAATYYCQHSREFPWTFGGGTKVEIKRADAAPGGGGSGGGGSGGGGSEVQLVESGGGLVQPGGSLRLSCAASGFTFSNYGMHWVRQAPGKGLEWVSYISSGSSTIYYADSVKGRFTISRDNAKNSLYLQMNSLRAEDTAVYYCARRGLLLDYWGQGTTVTVSS

Assays:
A549 lung cancer cells = assay: Protein L immunostain of variant 13 nuclear penetration with nuclear import inhibitors, A549 cells; format: cell-based; details: 10 μM variant 13 co-incubated with 0, 10, 25, or 50 μM inhibitor
Procedure: (§1) For all experiments, cells were cultivated overnight to allow for attachment, followed by pretreatment with either control medium (absence of inhibitor), or medium containing inhibitor for durations previously-reported in the literature (see Table 1, below).
(§2) For endocytosis inhibition experiments, cells were cultivated in serum-free medium containing 1% v/v BSA to deplete endogenous serum levels. Following preincubation with inhibitors, cells were treated with either control medium or 10 μM variant 13, and the same dose of small molecule inhibitor for a further 30 minutes. For all experiments, cells were washed thrice, followed by immediate fixation with pre-chilled ice-cold ethanol. Subsequently, treated cells were probed using a protein L immunodetection approach to probe variant 13 nuclear uptake (Rattray et al., Biochem Biophys Res Commun 496, 858-864 (2018)). All monolayers were immediately imaged following color development on an Evos Fl microscope.
(§3) DLD-1 and A549 cells were treated with 10 μM variant 13 co-incubated with 0, 10, 25, or 50 μM concentrations of ivermectin. Relative intensity of protein L nuclear staining as compared to amount of stain in cells treated without ivermectin was also quantified by ImageJ.
(§4) DLD-1 cells and A549 cells were treated with 10 μM variant 13 co-incubated with 0, 10, 25, or 50 μM concentrations of importazole and then immunostained for protein L.
(§5) DLD-1 cells and A549 cells were treated with 10 μM variant 13 co-incubated with 0, 10, 25, or 50 μM concentrations of mifepristone and then immunostained for protein L.

DLD1 cancer cells = assay: Uptake of rhodamine-labeled variant 13 into live DLD1 cells; format: cell-based; details: 50 μM importazole
Procedure: Live DLD1 cancer cells were treated with control or rhodamine-labeled variant 13 (Rh-variant 13)+/−50 μM importazole and were then visualized under light and fluorescence microscopy.

DLD1 cells [1] = assay: SLE sera nuclear import with nuclear import inhibitors; format: cell-based; details: pre- and co-treatment with inhibitor
Procedure: DLD1 cells were pre-treated with either control media, or media containing nuclear import inhibitors for four hours. Subsequent co-treatment with inhibitor and patient SLE serum (diluted 1:50) was performed for one hour at 37° C. Following treatment, cells were fixed, blocked and probed with an alkaline-phosphatase anti-human IgG primary antibody overnight (Fisher Scientific). Cell monolayers were washed, and color developed using NBT/BCIP reagent (Fisher Scientific) for the same duration across all experiments. Following chromogen color development, all monolayers were washed, and brightfield images acquired immediately on an Evos Fl microscope.

DLD1 colon cancer cells = assay: Protein L immunostain of variant 13 nuclear penetration with nuclear import inhibitors, DLD1 cells; format: cell-based; details: 10 μM variant 13 co-incubated with 0, 10, 25, or 50 μM inhibitor
Procedure: as §1, §2, §3, §4, §5

MCF7 breast cancer cells = assay: Uptake of rhodamine-labeled variant 13 into live MCF7 cells; format: cell-based; details: 50 μM ivermectin
Procedure: Live MCF7 breast cancer cells were treated with control or rhodamine-labeled variant 13 (Rh-variant 13)+/−50 μM ivermectin and were then visualized under light and fluorescence microscopy. Ivermectin inhibited cellular/nuclear uptake of Rh-variant 13.

DLD1 cells [2] = assay: Nuclear penetration of scleroderma autoantibody SSC and effect of ivermectin; format: cell-based
Source text: In addition to SLE, cell-penetrating autoantibodies are detected in other autoimmune diseases such as scleroderma. […] SSC was expressed in and purified from HEK293T cells. […] Ivermectin inhibited the nuclear uptake of SSC, confirming that ivermectin can modulate the nuclear-penetrating activity of autoantibodies from multiple autoimmune diseases.

cell nuclei [3] = details: known anti-DNA autoantibodies; cited from earlier work
cell nuclei [4] = assay: Nuclear penetration of humanized 3E10 variants compared with 3E10 (D31N) di-scFv; format: cell-based; details: for Nuclear localizing?: humanized 3E10 variants
Source text: A range of humanized 3E10 variants were generated with subtle differences in framework and CDR sequences.

Importin-β1 (KPNB1) = target: T1, Importin-β1 (KPNB1) (Homo sapiens, UniProt Q14974); assay: Variant 13 nuclear penetration after siRNA knockdown of importin β1 in DLD1 cells; format: cell-based; details: 10 μM variant 13 for 30 minutes, n=100 cells per treatment
T1 construct: endogenous in cells; host or cells: DLD1 cells
Procedure: Importin-β1 (KPNB1) knockdown in DLD1 cells were generated using control (D-001206-14-05) and KPNB1 (importin β1, M-017523-01-0005) siRNA (Dharmacon). DLD1 cells were seeded into 24-well (western blot) or 96-well plates (cell penetration assays) overnight. Cell monolayers were transfected with siRNA, followed by media replacement at 24 hours, and evaluation at multiple time points post-transfection. Importin (31 expression was then evaluated by western blotting of cell lysates.
Knockdown of importin β1 in DLD1 cells by siRNA was next performed to further probe the role of this pathway in modulating variant 13 nuclear localization.

T1 sequence (Q14974 whole entry): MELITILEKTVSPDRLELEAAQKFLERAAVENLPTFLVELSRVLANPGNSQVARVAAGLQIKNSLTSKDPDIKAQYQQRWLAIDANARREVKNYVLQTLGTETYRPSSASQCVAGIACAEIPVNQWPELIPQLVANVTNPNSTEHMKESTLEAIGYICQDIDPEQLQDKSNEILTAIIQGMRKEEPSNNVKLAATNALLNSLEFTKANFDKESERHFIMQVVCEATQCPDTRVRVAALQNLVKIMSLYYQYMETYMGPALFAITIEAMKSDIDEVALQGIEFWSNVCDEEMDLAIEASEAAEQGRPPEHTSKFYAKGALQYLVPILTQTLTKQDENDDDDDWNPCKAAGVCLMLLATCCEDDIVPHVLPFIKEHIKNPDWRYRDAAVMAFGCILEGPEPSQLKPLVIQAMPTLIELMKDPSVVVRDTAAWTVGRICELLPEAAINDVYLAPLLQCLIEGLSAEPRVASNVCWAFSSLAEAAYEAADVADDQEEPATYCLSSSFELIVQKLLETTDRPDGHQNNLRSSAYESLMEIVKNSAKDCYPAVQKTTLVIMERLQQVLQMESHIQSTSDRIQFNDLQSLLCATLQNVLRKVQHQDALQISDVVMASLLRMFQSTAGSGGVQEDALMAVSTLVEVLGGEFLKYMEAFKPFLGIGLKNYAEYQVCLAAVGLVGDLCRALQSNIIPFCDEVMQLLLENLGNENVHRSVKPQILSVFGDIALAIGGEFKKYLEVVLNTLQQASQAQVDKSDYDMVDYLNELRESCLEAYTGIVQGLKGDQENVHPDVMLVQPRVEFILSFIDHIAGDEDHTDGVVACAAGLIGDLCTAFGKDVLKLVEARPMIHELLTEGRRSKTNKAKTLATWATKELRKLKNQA

Molecule | nuclear penetration by variant 13 (A549 lung cancer cells) | nuclear uptake of ANAs in SLE-19 (DLD1 cells [1]) | nuclear penetration by variant 13 (DLD1 colon cancer cells) | nuclear penetration compared to murine 3E10 (D31N) di-scFv prototype (cell nuclei [4]) | Nuclear localizing? (cell nuclei [4]) | other results
CC(Nc1nc(N2CCCC2)nc2ccccc12)c1ccccc1 (stereo not drawn) [importazole] | reduction | inhibit nuclear uptake of ANAs in SLE-19 in a dose-dependent manner | reduction | – | – | nuclear uptake of rhodamine-labeled variant 13 (DLD1 cancer cells): inhibited
CC#C[C@]1(O)CC[C@H]2[C@@H]3CCC4=CC(=O)CCC4=C3[C@@H](c3ccc(N(C)C)cc3)C[C@@]21C [mifepristone] | reduction | inhibit nuclear uptake of ANAs in SLE-19 in a dose-dependent manner | reduction | – | – | –
ivermectin | dose-dependent reduction | – | dose-dependent reduction | – | – | cellular/nuclear uptake of rhodamine-labeled variant 13 (MCF7 breast cancer cells): inhibited; nuclear uptake of SSC (DLD1 cells [2]): inhibited; nuclear staining / nuclear uptake of ANAs in SLE-4, 8, 9, and 19 (DLD1 cells [1]; serum diluted 1:50): reduced the nuclear staining; also recorded: blocked
3E10: murine lupus anti-DNA monoclonal antibody produced by ATCC Accession No. PTA 2439 hybridoma [Variant 3E10] | – | – | – | – | – | Nuclear localizing? (cell nuclei [3]): Yes
B1 | – | – | – | penetrated nuclei very well | Yes | –
B2 | – | – | – | penetrated nuclei very well | Yes | variant 13 nuclear signal in importin β1 knockdown cells compared to cells with intact importin β1 (Importin-β1 (KPNB1)): significant reduction
